According to patent US10287255B2, “Compounds as histone deacetylase 6 inhibitors and pharmaceutical compositions comprising the same” (CHONG KUN DANG PHARMACEUTICAL CORP., priority 2014, dated 2019):

Experiments:
[1] = target: T1, human recombinant HDAC6 (Homo sapiens, UniProt Q9UBN7); assay: HDAC6 enzyme activity inhibition assay (in vitro, fluorimetric); format: biochemical; settings: for HDAC6 selectivity (fold): HDAC6 selectivity over HDAC1; for IC50: human recombinant HDAC6, fluorimetric kit, same protocol as HDAC1
T1 construct: purchased Calbiochem 382180
T1 sequence (Q9UBN7 1-1215): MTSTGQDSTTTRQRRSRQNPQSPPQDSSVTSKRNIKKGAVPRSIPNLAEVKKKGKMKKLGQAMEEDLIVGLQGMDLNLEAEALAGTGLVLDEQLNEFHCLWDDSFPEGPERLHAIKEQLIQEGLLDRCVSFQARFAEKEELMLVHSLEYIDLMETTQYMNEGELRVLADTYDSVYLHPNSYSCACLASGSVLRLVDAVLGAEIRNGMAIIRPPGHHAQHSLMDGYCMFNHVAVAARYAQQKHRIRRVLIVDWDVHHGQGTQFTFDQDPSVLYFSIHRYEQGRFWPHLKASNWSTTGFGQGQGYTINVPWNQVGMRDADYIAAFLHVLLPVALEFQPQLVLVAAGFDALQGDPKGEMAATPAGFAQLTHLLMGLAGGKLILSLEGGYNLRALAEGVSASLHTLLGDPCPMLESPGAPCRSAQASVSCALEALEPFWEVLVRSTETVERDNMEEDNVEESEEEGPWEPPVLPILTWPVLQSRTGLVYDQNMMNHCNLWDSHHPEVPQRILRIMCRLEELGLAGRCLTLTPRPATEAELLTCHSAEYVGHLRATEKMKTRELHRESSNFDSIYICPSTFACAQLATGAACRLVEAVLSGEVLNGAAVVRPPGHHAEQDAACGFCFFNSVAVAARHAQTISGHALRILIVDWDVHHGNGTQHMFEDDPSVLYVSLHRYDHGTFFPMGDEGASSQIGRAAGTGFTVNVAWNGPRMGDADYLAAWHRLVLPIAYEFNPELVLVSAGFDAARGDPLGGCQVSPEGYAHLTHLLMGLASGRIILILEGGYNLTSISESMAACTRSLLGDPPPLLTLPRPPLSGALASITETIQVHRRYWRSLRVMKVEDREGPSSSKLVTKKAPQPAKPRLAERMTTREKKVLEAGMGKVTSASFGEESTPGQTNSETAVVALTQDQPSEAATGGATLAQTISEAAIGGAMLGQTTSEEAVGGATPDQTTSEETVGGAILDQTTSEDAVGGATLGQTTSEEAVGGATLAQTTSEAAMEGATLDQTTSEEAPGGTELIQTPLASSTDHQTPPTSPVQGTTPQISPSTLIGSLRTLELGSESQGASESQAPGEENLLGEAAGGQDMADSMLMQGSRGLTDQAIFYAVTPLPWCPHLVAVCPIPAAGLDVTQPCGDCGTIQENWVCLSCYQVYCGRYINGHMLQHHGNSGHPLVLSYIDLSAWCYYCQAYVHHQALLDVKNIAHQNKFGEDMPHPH
In short: (§1)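 IC50 values derive from fluorescence (Ex 360, Em 460) after developer treatment (30 min) of reactions of recombinant human HDAC1 or HDAC6 with 10 μM Fluor de Lys-SIRT1 substrate (60 min, 30 °C). Compounds were serially diluted 5-fold; 0.3 μg enzyme was used for HDAC1, with HDAC6 tested identically.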

[2] = target: T2, human recombinant HDAC1 (Homo sapiens, UniProt Q13547); assay: HDAC1 enzyme activity inhibition assay (in vitro, fluorimetric); format: biochemical; settings: human recombinant HDAC1, fluorimetric kit, 30° C. 60 minutes
T2 construct: purchased Enzo Life Science BML-SE456
T2 sequence (Q13547 whole entry): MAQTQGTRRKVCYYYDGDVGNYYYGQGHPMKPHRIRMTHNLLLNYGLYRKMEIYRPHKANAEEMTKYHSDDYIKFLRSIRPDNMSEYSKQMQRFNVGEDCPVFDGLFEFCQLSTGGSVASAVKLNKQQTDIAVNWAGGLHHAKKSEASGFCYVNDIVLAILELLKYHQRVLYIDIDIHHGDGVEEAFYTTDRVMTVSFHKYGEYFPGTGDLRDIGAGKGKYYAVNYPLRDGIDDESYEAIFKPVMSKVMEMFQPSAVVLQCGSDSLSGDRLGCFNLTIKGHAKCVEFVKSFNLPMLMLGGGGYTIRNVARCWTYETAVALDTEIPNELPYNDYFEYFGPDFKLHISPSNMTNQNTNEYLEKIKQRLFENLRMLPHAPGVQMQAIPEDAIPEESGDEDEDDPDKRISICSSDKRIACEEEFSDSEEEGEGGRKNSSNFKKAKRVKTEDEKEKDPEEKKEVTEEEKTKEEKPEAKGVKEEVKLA
In short: as §1

Row | SMILES | HDAC6 selectivity (fold) [1] [fold] | IC50 [1] [µM] | IC50 [2] [µM]
1 | C[C@@H]1CN(Cc2ccccc2)C[C@H](C)N1Cc1ccc(C(=O)NO)c(F)c1 [Compound 174, 4-(((2S,6R)-4-benzyl-2,6-dimethylpiperazin-1-yl)methyl)-2-fluoro-N-hydroxybenzamide] | >103 | 0.097 | > 10
2 | C[C@@H]1CN(Cc2ccc(C(=O)NO)cc2)C[C@H](C)N1Cc1ccccc1CN1CCOCC1 [Compound 457, 4-(((3R,5S)-3,5-dimethyl-4-(2-(morpholinomethyl)benzyl)piperazin-1-yl)methyl)-N-hydroxybenzamide] | 2 | 0.146 | 0.3
3 | C[C@@H]1CN(Cc2ccc(C(=O)NO)cc2)C[C@H](C)N1Cc1ccc(CN2CCCCC2)cc1 [Compound 467, 4-(((3R,5S)-3,5-dimethyl-4-(4-(piperidin-1-ylmethyl)benzyl)piperazin-1-yl)methyl)-N-hydroxybenzamide] | >204 | 0.049 | > 10
4 | C[C@@H]1CN(C(=O)c2ccc(CC(=O)NO)cc2)C[C@H](C)N1Cc1ccccc1 [Compound 823, 2-(4-((3R,5S)-4-benzyl-3,5-dimethylpiperazine-1-carbonyl)phenyl)-N-hydroxyacetamide] | 66 | 0.04 | 2.7
5 | C[C@@H]1CN(Cc2ccc(C(=O)NO)cc2)C[C@H](C)N1C(=O)c1ccccc1-c1ccncc1 [Compound 285, 4-(((3R,5S)-3,5-dimethyl-4-(2-(pyridin-4-yl)benzoyl)piperazin-1-yl)methyl)-N-hydroxybenzamide] | 75 | 0.093 | 7
6 | C[C@@H]1CN(C(=O)Nc2ccc3c(ccn3C)c2)C[C@H](C)N1Cc1ccc(C(=O)NO)cc1 [Compound 185, (3R,5S)-4-(4-(hydroxycarbamoyl)benzyl)-3,5-dimethyl-N-(1-methyl-1 H -indol-5-yl)piperazine-1-carboxamide] | 3 | 0.249 | 0.8
7 | CC(C)N1C[C@@H](C)N(Cc2ccc(C(=O)NO)cc2)[C@@H](C)C1 [Compound 273, N-hydroxy-4-(((2S,6R)-4-isopropyl-2,6-dimethylpiperazin-1-yl)methyl)benzamide] | 31 | 0.441 | 13.7
8 | C[C@@H]1CN(Cc2ccc(N(C)C)cc2)C[C@H](C)N1Cc1ccc(C(=O)NO)cc1 [Compound 299, 4-(((2S,6R)-4-(4-(dimethylamino)benzyl)-2,6-dimethylpiperazin-1-yl)methyl)-N-hydroxybenzamide] | 5 | 0.243 | 1.2
9 | C[C@@H]1CN(Cc2ccc(C(=O)NO)cc2)C[C@H](C)N1C(=O)c1cccc(CN2CCOCC2)c1 [Compound 439, 4-(((3R,5S)-3,5-dimethyl-4-(3-(morpholinomethyl)benzoyl)piperazin-1-yl)methyl)-N-hydroxybenzamide] | 105 | 0.104 | 10.9
10 | C[C@@H]1CN(Cc2ccc(C(=O)NO)cc2)C[C@H](C)N1Cc1ccc(CN2CCN(Cc3ccccc3)CC2)cc1 [Compound 413, 4-(((3R,5S)-4-(4-((4-benzylpiperazin-1-yl)methyl)benzyl)-3,5-dimethylpiperazin-1-yl)methyl)-N-hydroxybenzamide] | >769 | 0.013 | > 10
11 | CC(=O)N1[C@H](C)CN(Cc2ccc(C(=O)NO)cc2)C[C@@H]1C [Compound 082, 4-(((3R,5S)-4-acetyl-3,5-dimethylpiperazin-1-yl)methyl)-N-hydroxybenzamide] | 369 | 0.034 | 12.5
12 | C[C@@H]1CN(C(=O)c2ccco2)C[C@H](C)N1Cc1ccc(C(=O)NO)cc1 [Compound 115, 4-(((2S,6R)-4-(furan-2-carbonyl)-2,6-dimethylpiperazin-1-yl)methyl)-N-hydroxybenzamide] | 18 | 0.181 | 3.2
13 | C[C@@H]1CN(C(=O)c2cccc(C3=CCC(C)(C)CC3)c2)C[C@H](C)N1Cc1ccc(C(=O)NO)cc1 [Compound 263, 4-(((2S,6R)-4-(4′,4′-dimethyl-2′,3′,4′,5′-tetrahydro-[1,1′-biphenyl]-3-carbonyl)-2,6-dimethylpiperazin-1-yl)methyl)-N-hydroxybenzamide] | <7 | > 1 | 6.8
14 | CCCC(=O)N1[C@H](C)CN(Cc2ccc(C(=O)NO)cc2)C[C@@H]1C [Compound 294, 4-(((3R,5S)-4-butyryl-3,5-dimethylpiperazin-1-yl)methyl)-N-hydroxybenzamide] | 37 | 0.22 | 8.2
15 | C[C@@H]1CN(Cc2ccc(C(=O)NO)cc2)C[C@H](C)N1C(=O)Oc1ccccc1 [Compound 177, phenyl(2S,6R)-4-(4-(hydroxycarbamoyl)benzyl)-2,6-dimethylpiperazine-1-carboxylate] | 186 | 0.031 | 5.8
16 | C[C@@H]1CN(C(=O)c2cccc(-c3cccnc3)c2)C[C@H](C)N1Cc1ccc(C(=O)NO)cc1 [Compound 261, 4-(((2S,6R)-2,6-dimethyl-4-(3-(pyridin-3-yl)benzoyl)piperazin-1-yl)methyl)-N-hydroxybenzamide] | 3 | 0.577 | 2
17 | C[C@@H]1CN(Cc2ccc(C(=O)NO)cc2)C[C@H](C)N1CCCC(F)(F)F [Compound 204, 4-(((3R,5S)-3,5-dimethyl-4-(4,4,4-trifluorobutyl)piperazin-1-yl)methyl)-N-hydroxybenzamide] | >12 | 0.807 | > 10
18 | C[C@@H]1CN(Cc2ccc(C(=O)NO)cc2)C[C@H](C)N1Cc1ccccc1-c1ccncc1 [Compound 329, 4-(((3R,5S)-3,5-dimethyl-4-(2-(pyridin-4-yl)benzyl)piperazin-1-yl)methyl)-N-hydroxybenzamide] | 280 | 0.052 | 14.6
19 | CC(c1ccccc1)N1C[C@@H](C)N(Cc2ccc(C(=O)NO)cc2)[C@@H](C)C1 (stereo partly drawn) [Compound 220, 4-(((2S,6R)-2,6-dimethyl-4-(1-phenylethyl)piperazin-1-yl)methyl)-N-hydroxybenzamide] | 13 | 1.23 | 15.9
20 | C[C@@H]1CN(C(=O)Cc2cccc(-c3ccncc3)c2)C[C@H](C)N1Cc1ccc(C(=O)NO)cc1 [Compound 251, 4-(((2S,6R)-2,6-dimethyl-4-(2-(3-(pyridin-4-yl)phenyl)acetyl)piperazin-1-yl)methyl)-N-hydroxybenzamide] | 57 | 0.242 | 13.7
21 | C[C@@H]1CN(Cc2ccc(C(=O)NO)cc2)C[C@H](C)N1C(=O)c1ccccc1C1=CCOCC1 [Compound 326, 4-(((3R,5S)-4-(2-(3,6-dihydro-2H-pyran-4-yl)benzoyl)-3,5-dimethylpiperazin-1-yl)methyl)-N-hydroxybenzamide] | >172 | 0.058 | > 10
